Results published in publication PMC12293755, “Synthesis and Cytotoxicity Evaluation of Denitroaristolochic Acids: Structural Insights and Mechanistic Implications in Nephrotoxicity” (Biomolecules, 2025).

Experiments:
[1] = CCK-8 cytotoxicity assay in HK2 cells; assay type: cell-based, human; conditions: human, CCK-8, 24 h compound exposure, 3 to 1000 μM, ND: not detected, read-out: IC50 (μM), cytotoxic effects on HK2 cells in vitro
Protocol: (§1) This study systematically investigated the cytotoxic effects and structure-activity relationships of denitroaristolochic acid analogs (DAA-II, DAA-III, DAA-IV, DAA-V) on human renal cortical proximal tubular epithelial cells (HK2) using the cell counting kit-8 (CCK-8) assay. HK2 cells were maintained in Dulbecco’s modified eagle medium (DMEM) supplemented with 10% fetal bovine serum under standard culture conditions (37 °C, 5% CO2). At 80% confluence, cells were trypsinized and seeded into 96-well plates at a density of 1 × 10^4 cells/well, followed by a 4–6 h attachment period prior to compound exposure. Stock solutions ([…]) of each DAA were prepared in DMSO and serially diluted to final concentrations ranging from 3 to 1000 μM, with DMSO concentration strictly maintained at 0.5% (v/v) in all treatment groups. Experimental controls included AA-I as positive control and 0.5% DMSO-containing medium as vehicle control. Following 24 h compound exposure, cell viability was assessed using CCK-8 reagent according to manufacturer specifications: 10 μL CCK-8 solution was added to each well, followed by 2 h incubation under light-protected conditions. Absorbance was measured at 450 nm using a microplate reader, with morphological observations conducted via inverted phase-contrast microscopy.
(§2) This study systematically evaluated the cytotoxic effects of aristolochic acids (AAs) on HK2 cells (the HK2 cell lines were from the Cell Bank of the Chinese Academy of Sciences) using the CCK-8 assay. […] This finding provides novel insights into the toxicological mechanisms of aristolochic acid analogs, and their precise mode of action warrants further elucidation through integrated toxicological approaches, including metabolomic profiling, signaling pathway screening, and molecular docking studies.

HK2 cells = assay: CCK-8 cytotoxicity assay in HK2 cells; assay type: cell-based, human; conditions: CCK-8, 24 h compound exposure, 3 to 1000 μM
Protocol: as §1, §2

Row | SMILES | IC50 [1] | cytotoxicity in human renal proximal tubular epithelial cells (result in words) (HK2 cells) | other results
1 | COc1cccc2c1cc([N+](=O)[O-])c1c(C(=O)O)cc3c(c12)OCO3 [AA-I, aristolochic acid I, reference compound] | – | – | IC50 at 24 h [1]: 270 µM
2 | COc1cc(OC)c2ccc3c(C(=O)O)cc4c(c3c2c1)OCO4 [DAA-IV, 8,10-dimethoxyphenanthro [3,4-d][1,3]dioxole-5-carboxylic acid] | 515 µM | – | –
3 | COc1cc2ccc3c(C(=O)O)cc4c(c3c2cc1OC)OCO4 [DAA-V, 9,10-Dimethoxyphenanthro [3,4-d][1,3]dioxole-5-carboxylic acid] | – | no detectable cytotoxicity | –
4 | COc1ccc2ccc3c(C(=O)O)cc4c(c3c2c1)OCO4 [DAA-III, 10-Methoxyphenanthro [3,4-d][1,3]dioxole-5-carboxylic acid] | 371 µM | – | –
5 | O=C(O)c1cc2c(c3c1ccc1ccccc13)OCO2 [DAA-II, phenanthro [3,4-d][1,3]dioxole-5-carboxylic acid] | – | no detectable cytotoxicity | –
